According to patent publication US8518973B2, “Compounds having 4-pyridylalkylthio group as a substituent” (Santen Pharmaceutical Co., Ltd., priority 2003, dated 2013):

The compounds below were run on VEGF-induced HUVEC growth (assay: VEGF-induced HUVEC growth reaction evaluation system (cell growth inhibitory action test)). Conditions: Homo sapiens, 72 h, 20 μg/ml test compound solution added 5 μl per well (100 μl), VEGF solution 400 ng/ml 5 μl per well, three days, absorbance at 450 nm, read-out: Cell growth inhibition rate (%).
Type: cell-based
Procedure: Cell growth inhibitory action tests were carried out using a VEGF-induced HUVEC growth reaction evaluation system (HUVEC stands for human umbilical vein endothelial cells), which is one of widely-used methods of evaluating in vitro angiogenesis inhibitory effects of drugs.
As one of widely-used methods of evaluating angiogenesis inhibitory effects of drugs, a cell growth inhibitory action test using a VEGF-induced HUVEC growth reaction evaluation system was reported in Cancer Res., 59, 99-106(1999). According to the method described in the above-mentioned literature, cell growth inhibitory action tests of the present compounds were carried out, their cell growth inhibition rates were calculated, and angiogenesis inhibitory effects of the present compounds were evaluated using the obtained rates as indexes.
Each test compound was dissolved in dimethyl sulfoxide (hereinafter abbreviated as “DMSO”), and the obtained solution was diluted with commercially available phosphoric acid buffer solution (hereinafter abbreviated as “PBS”) to prepare a 20 μg/ml test compound solution.
HUVEC was suspended in a 0.5% fetal bovine serum (hereinafter abbreviated as “FBS”)-containing F12K medium to prepare a 2×10^4 cells/ml HUVEC suspension.
VEGF was dissolved in 0.1% bovine serum albumin-containing PBS, and the obtained solution was diluted with the 0.5% FBS-containing F12K medium to prepare a 400 ng/ml VEGF solution.
• 1) The HUVEC suspension was inoculated in each amount of 100 μl into each well of a 96-well plate coated with I type collagen (2×10^3 cells per well). • 2) One day after inoculation, the test compound solution was added in an amount of 5 μl per well. • 3) One hour after adding the test compound solution, the VEGF solution was added in an amount of 5 μl per well. • 4) Three days after adding the VEGF solution, cell counting kit-8(Dojin Chemical Co., Ltd.) was added in an amount of 10 μl per well. • 5) After three hours, the above-mentioned plate was attached to an absorptiometer (multi label counter ARVO), and absorbance at 450 nm of each well suspension (hereinafter referred to as “test compound suspension”) was measured. • 6) A test was carried out in the same manner as in 1) to 5) except that 1.0% DMSO was used instead of the test compound solution.
Incubation was carried out under conditions of 37° C., 5% carbon dioxide and 95% air in an incubator throughout the above-mentioned test steps.
Cell growth inhibition rates, which are indexes of angiogenesis inhibitory effects, were calculated by the following calculation equation.

SMILES	inhibition at 20 µg/mL (stock)
O=C(Nc1cc(F)cc(C(F)(F)F)c1)c1cccnc1SCc1ccncc1 [1-83, N-(3-Fluoro-5-trifluoromethylphenyl)-2-(4-pyridylmethylthio)pyridine-3-carboxamide]	100%
COCCNC(=O)c1cc(CSc2ncccc2C(=O)Nc2cc(C)cc(C)c2)ccn1 [7-4, N-(3,5-Dimethylphenyl)-2-[2-(2-methoxyethylaminocarbonyl)pyridin-4-ylmethylthio]pyridine-3-carboxamide]	100%
Cc1cc(C)cc(NC(=O)c2cccnc2SCc2ccnc(C(N)=O)c2)c1 [8-1, 2-(2-Carbamoylpyridin-4-ylmethylthio)-N-(3,5-dimethylphenyl)pyridine-3-carboxamide]	100%
Cc1cccc(NC(=O)c2cccnc2SCc2cc[n+]([O-])cc2)c1 [4-3, N-(3-Methylphenyl)-2-(1-oxopyridin-4-ylmethylthio)pyridine-3-carboxamide]	100%
O=C(Nc1ccc(C(F)(F)F)cc1)c1sccc1SCc1ccncc1 [1-255, 3-(4-Pyridylmethylthio)-N-(4-trifluoromethylphenyl)thiophene-2-carboxamide]	85%
CC(C)c1cccc(NC(=O)c2ccccc2SCc2ccncc2)c1 [1-92, N-(3-Isopropylphenyl)-2-(4-pyridylmethylthio)benzamide]	100%
CN(C)c1ccc(NC(=O)c2ccccc2SCc2ccncc2)cc1 [1-91, N-(4-Dimethylaminophenyl)-2-(4-pyridylmethylthio)benzamide]	100%
O=C(Nc1cccc(Cl)c1)c1ccccc1SCc1ccncc1 [1-90, N-(3-Chlorophenyl)-2-(4-pyridylmethylthio)benzamide]	100%
CC(C)(C)c1ccc(NC(=O)c2cccnc2SCc2cc[n+]([O-])cc2)cc1 [4-10, N-(4-tert-Butylphenyl)-2-(1-oxopyridin-4-ylmethylthio)pyridine-3-carboxamide]	100%
Cc1cc(NC(=O)c2ccsc2SCc2ccncc2)ccc1Br [1-289, N-(4-Bromo-3-methylphenyl)-2-(4-pyridylmethylthio)thiophene-3-carboxamide]	100%
COc1cc(CSc2ncccc2C(=O)Nc2cc(C)cc(C)c2)ccn1 [1-300, N-(3,5-Dimethylphenyl)-2-(2-methoxypyridin-4-ylmethylthio)pyridine-3-carboxamide]	100%
CSc1cc(CSc2ncccc2C(=O)Nc2ccc(Cl)cc2)ccn1 [1-232, N-(4-Chlorophenyl)-2-(2-methylthiopyridin-4-ylmethylthio)pyridine-3-carboxamide]	75%
O=C(Nc1cc2ccccc2cn1)c1ccccc1SCc1ccncc1 [1-209, N-(3-Isoquinolyl)-2-(4-pyridylmethylthio)benzamide]	99%
O=C(Nc1ccc2c(c1)CCC2)c1cccnc1SCc1ccnc(Cl)c1 [1-216, 2-(2-Chloropyridin-4-ylmethylthio)-N-(5-indanyl)pyridine-3-carboxamide]	100%
Cc1ccc(NC(=O)c2cccnc2SCc2cc[n+]([O-])cc2)cc1C [4-5, N-(3,4-Dimethylphenyl)-2-(1-oxopyridin-4-ylmethylthio)pyridine-3-carboxamide]	100%
Cc1cc(C)cc(NC(=O)c2cccnc2SCc2ccnc(C(=O)Nc3ccc(Cl)cc3)c2)c1 [7-2, 2-[2-(4-Chlorophenylaminocarbonyl)pyridin-4-ylmethylthio]-N-(3,5-dimethylphenyl)pyridine-3-carboxamide]	100%
Cc1cc(CSc2ncccc2C(=O)Nc2ccc(OC(F)(F)F)cc2)ccn1 [1-308, 2-(2-Methylpyridin-4-ylmethylthio)-N-(4-trifluoromethoxyphenyl)pyridine-3-carboxamide]	92%
Cc1cc(NC(=O)c2sccc2SCc2ccncc2)ccc1F [1-252, N-(4-Fluoro-3-methylphenyl)-3-(4-pyridylmethylthio)thiophene-2-carboxamide]	100%

SMILES	inhibition at 20 µg/mL (stock)
CN(C)c1ccc(NC(=O)c2cccnc2SCc2ccncc2)cc1 [1-64, N-(4-Dimethylaminophenyl)-2-(4-pyridylmethylthio)pyridine-3-carboxamide]	100%
CCOC(=O)c1cc(CSc2ncccc2C(=O)Nc2cc(C)cc(C)c2)ccn1 [1-241, N-(3,5-dimethylphenyl)-2-(2-ethoxycarbonylpyridin-4-ylmethylthio)pyridine-3-carboxamide]	96%
O=C(Nc1ccc2c(c1)CCC2)c1cccnc1SCc1ccnc(F)c1 [1-215, 2-(2-Fluoropyridin-4-ylmethylthio)-N-(5-indanyl)pyridine-3-carboxamide]	100%
Cc1cc(C)cc(NC(=O)c2cccnc2SCc2ccnc(C)c2)c1 [1-307, N-(3,5-Dimethylphenyl)-2-(2-methylpyridin-4-ylmethylthio)pyridine-3-carboxamide]	100%
CNC(=O)c1cc(CSc2ncccc2C(=O)Nc2cc(C)cc(C)c2)ccn1 [7-3, N-(3,5-Dimethylphenyl)-2-(2-methylaminocarbonylpyridin-4-ylmethylthio)pyridine-3-carboxamide]	100%
O=C(Nc1ccc(C(F)(F)F)cc1)c1ccsc1SCc1ccncc1 [1-290, 2-(4-Pyridylmethylthio)-N-(4-trifluoromethylphenyl)thiophene-3-carboxamide]	100%
Cc1cc(C)cc(NC(=O)c2cccnc2SCc2ccnc(Cl)c2)c1 [1-226, 2-(2-Chloropyridin-4-ylmethylthio)-N-(3,5-dimethylphenyl)pyridine-3-carboxamide]	100%
CSc1cc(CSc2ncccc2C(=O)Nc2cc(C)cc(C)c2)ccn1 [1-231, N-(3,5-Dimethylphenyl)-2-(2-methylthiopyridin-4-ylmethylthio)pyridine-3-carboxamide]	100%
COc1ccc(NC(=O)c2ccccc2SCc2ccncc2)cc1OC [1-93, N-(3,4-Dimethoxyphenyl)-2-(4-pyridylmethylthio)benzamide]	72%
Cc1cc(C)cc(NC(=O)c2cccnc2SCc2ccnc(F)c2)c1 [1-213, N-(3,5-Dimethylphenyl)-2-(2-fluoropyridin-4-ylmethylthio)pyridine-3-carboxamide]	100%
Cc1cc(NC(=O)c2cccnc2SCc2cc[n+]([O-])cc2)ccc1F [4-7, N-(4-Fluoro-3-methylphenyl)-2-(1-oxopyridin-4-ylmethylthio)pyridine-3-carboxamide]	100%
Cc1cccc(NC(=O)c2sccc2SCc2ccncc2)c1 [1-263, N-(3-Methylphenyl)-3-(4-pyridylmethylthio)thiophene-2-carboxamide]	100%
Cc1cccc(NC(=O)c2cscc2SCc2ccncc2)c1 [1-292, N-(3-Methylphenyl) 4 (4-pyridylmethylthio)thiophene-3 carboxamide]	100%
O=C(Nc1ccc(Cl)c(C(F)(F)F)c1)c1cccnc1SCc1ccncc1 [1-74, N-(4-Chloro-3-trifluoromethylphenyl)-2-(4-pyridylmethylthio)pyridine-3-carboxamide]	100%
O=C(Nc1cc(Cl)cc(Cl)c1)c1cccnc1SCc1ccncc1 [1-84, N-(3,5-Dichlorophenyl)-2-(4-pyridylmethylthio)pyridine-3-carboxamide]	100%
Cc1ccc(NC(=O)c2cccnc2SCc2ccncc2)cc1Cl [1-78, N-(3-Chloro-4-methylphenyl)-2-(4-pyridylmethylthio)pyridine-3-carboxamide]	100%
O=C(Nc1ccc2c(c1)CCC2)c1sccc1SCc1ccncc1 [1-283, N-(5-Indanyl)-3-(4-pyridylmethylthio)thiophene-2-carboxamide]	100%
O=C(Nc1cccc(Cl)c1)c1sccc1SCc1ccncc1 [1-249, N-(3 Chlorophenyl)3-(4-pyridylmethylthio)thiophene-2-carboxamide]	100%
